Assay results from patent US11434241B2, “Pyrimidine derivatives for prevention and treatment of bacterial infections” (UNIVERSITE DE LIEGE, priority 2018, dated 2022).
≈ marks a conversion by molar mass, not a printed value. Where two headings read alike, the source gives them in different places.

Experiments:
[1] = test system: Staphylococcus epidermidis (ATCC 35984, also known as RP62A or MRSE); experiment: MIC determination on S. epidermidis (EUCAST, OD600 after overnight growth in MHB); assay type: cell-based
Description: The Minimal Inhibitory Concentration (MIC) of molecules 2329, 2348, 2412, 2452 and 2461 was determined on Staphylococcus epidermidis (ATCC 35984, also known as RP62A) according to EUCAST (European Committee on Antimicrobial Susceptibility Testing) recommendations.
Briefly, a single colony grown on a Tryptic Soy Agar (TSA) plate was resuspended and cultured in Tryptic Soy Broth (TSB) overnight (O/N) in aerobic conditions (37° C. with 220 rpm shaking), next day a 1:50 inoculum in Mueller-Hinton broth (MHB) was incubated in aerobic conditions for 3 hr and an inoculum of 1:100 dilution, corresponding to 3×10^5 CFU/ml, was incubated in presence or absence of different concentrations of the molecules in 1% DMSO (vehicle). After O/N growth the OD of each culture was measured at 600 nm in a spectrophotometer (OD600). The MIC represents the concentration at which there is no visible growth of bacteria, i.e. ΔOD at 600 nm equal to zero (blank is the medium alone).
The Minimal Inhibitory Concentration (MIC) of pyrazolopyrimidine molecules 2539, 2544, 2666,2676, 2693, 2783, 2784 and 2782 and of purine molecules 2498, 2511, 2525, 2527, 2833, and 2840 was determined on S. epidermidis (ATCC 35984, also known as RP62A or MRSE) according to EUCAST (European Committee on Antimicrobial Susceptibility Testing) recommendations.
Briefly, a single colony grown on an agar plate was resuspended and cultured in Triptic Soy Broth (TSB) medium overnight (O/N) in aerobic conditions (37° C. with 220 rpm shaking), next day a 1:50 inoculum in Mueller-Hinton broth (MHB) was incubated in aerobic conditions for 3 hr (OD=0.08-0.1) and an inoculum of 1:300 dilution, corresponding to 3×10^5 CFU/ml, was incubated in presence or absence of different concentrations of each of the molecules in 1% DMSO (vehicle). After O/N growth the OD of each culture was measured at 600 nm (600) in a spectrophotometer (Victor 3-Perkin Elmer). The MIC represents the concentration at which there is no visible growth of bacteria, i.e. ΔOD at 600 nm equal to zero (where ΔOD is the difference between the OD with the molecule and the OD of the blank, the medium alone).
(§1) Molecule 36z has been tested for its potential antibacterial activity by determining its minimal inhibitory concentration (MIC) according to protocols recommended by EUCAST to assess the efficacy of antibiotics against bacterial strains. In brief MIC in MRSA (ATCC BAA-1556) or in Xen29 (Perkin Elmer-ATCC 12600) for 36z (molecule 25 in WO2009/034386) was determined by culturing a single colony of MRSA or Xen29 in brain heart infusion (BHI) broth overnight (O/N) in aerobic conditions (37° C. with 220 rpm shaking), while MIC for MRSE (ATCC 35984) was determined by culturing MRSE in TSB O/N. Next day a 1:100 inoculum in Mueller-Hinton broth (MHB) is incubated in aerobic conditions for 3 hr (OD=0.08-0.1) and an inoculum of 1:300 dilution, corresponding to 3×10^5 CFU/ml, is incubated in presence or absence of different concentrations of the tested molecules in 1% DMSO. After O/N growth the OD of each culture was measured at 600 nm (OD600) in a spectrophotometer (Victor 3-Perkin Elmer). The MIC represents the concentration at which there is no visible growth of bacteria, i.e. ΔOD at 600 nm equal to zero (blank is the medium alone). No antibacterial activity was found against MRSA (ATCC BAA-1556), Xen29 (Perkin Elmer-ATCC 12600 or MRSE (ATCC 35984) strains when the molecule was used at concentrations up to 200 μM.

[2] = test system: methicillin-resistant S. aureus (MRSA) ATCC BAA-1556; experiment: MIC determination on methicillin-resistant S. aureus; assay type: cell-based, Staphylococcus aureus; settings: for antibacterial activity against MRSA (in words): MHB medium; for MIC: Staphylococcus aureus
Description: (§2) Further experiments are conducted using different strains of S. aureus, as clinically relevant Gram-positive bacterial strains: S. aureus ATCC 25904, methicillin-resistant S. aureus (MRSA) ATCC BAA-1556, Glycopeptide intermediate-resistant (GISA) S. aureus Mu-50 (ATCC 700695) in order to determine the Minimal Inhibitory Concentration (MIC) which is the minimal concentration required to prevent bacterial growth. The bioluminescent strain S. aureus Xen29 (ATCC 12600) was also used. This strain is derived from the parental strain S. aureus ATCC 12600, a pleural fluid isolate, which is also designated as NCTC8532.
(§3) A single colony selected from the different strains of S. aureus is resuspended and cultured in brain heart infusion (BHI) broth overnight (O/N) in aerobic conditions (37° C. with 220 rpm shaking), next day a 1:100 inoculum in Mueller-Hinton broth (MHB) is incubated in aerobic conditions for 3 hr (=OD0.08-0.1) and an inoculum of 1:300 dilution, corresponding to 3×10^5 CFU/ml, is incubated in presence or absence of different concentrations of the tested molecules in 1% DMSO. After O/N growth the OD of each culture was measured at 600 nm (OD600) in a spectrophotometer (Victor 3-Perkin Elmer). The MIC represents the concentration at which there is no visible growth of bacteria, i.e. ΔOD at 600 nm equal to zero (blank is the medium alone). […] The MIC of molecule 2329 against Glycopeptide intermediate-resistant (GISA) S. aureus Mu-50 (ATCC 700695) is in between 25 and 30 μM, while it is above 50 μM for molecules 2348, 2412, and 2452.
(§4) Further experiments are conducted using different strains of S. aureus, as clinically relevant Gram-positive bacterial strains: methicillin-resistant S. aureus (MRSA) ATCC BAA-1556 and S. aureus Xen29 (Perkin Elmer ATCC 12600).
(§5) To determine the MIC of the above mentioned molecules in MRSA or in Xen29, a single colony of MRSA or Xen29 is resuspended and cultured in brain heart infusion (BHI) broth overnight (O/N) in aerobic conditions (37° C. with 220 rpm shaking), next day a 1:100 inoculum in Mueller-Hinton broth (MHB) is incubated in aerobic conditions for 3 hr (OD=0.08-0.1) and an inoculum of 1:300 dilution, corresponding to 3×10^5 CFU/ml, is incubated in presence or absence of different concentrations of the tested molecules in 1% DMSO. After O/N growth the OD of each culture was measured at 600 nm (OD600) in a spectrophotometer (Victor 3-Perkin Elmer). The MIC represents the concentration at which there is no visible growth of bacteria, i.e. ΔOD at 600 nm equal to zero (blank is the medium alone).
as §1

[3] = test system: S. aureus Xen29 (ATCC 12600); experiment: MIC determination on bioluminescent S. aureus Xen29; assay type: cell-based, Staphylococcus aureus; settings: for antibacterial activity / inhibition of Xen29 growth (in words): MHB medium; for MIC: Staphylococcus aureus
Description: as §2, §3, §4, §5, §1

[4] = Staphylococcus epidermidis, MHB medium, tested up to 100 μM, read-out: MIC MRSE
[5] = MHB medium, tested up to 100 μM, hydrochloride, read-out: MIC MRSE
[6] = Staphylococcus epidermidis, read-out: MIC MRSE

CCCCSc1nc(N[C@@H]2C[C@H]2c2ccc(F)c(F)c2)c2ncn(CC)c2n1 [Molecule 2840, 2-(butylthio)-N-((1R,2S)-2-(3,4-difluorophenyl)cyclopropyl)-9-ethyl-9H-purin-6-amine]
MIC ([1]; MHB medium, tested up to 100 μM, read-out: MIC MRSE): >100 µM | MIC [1, 4]: > 100 µM | antibacterial activity against MRSA (in words) [2]: active | MIC ([2]; read-out: MIC MRSA): 50 µM (≈ 20.2 µg/mL)

CCSc1nc(N[C@@H]2C[C@H]2c2ccc(F)c(F)c2)c2ncn(CC)c2n1 [Molecule 2527, N-((1R,2S)-2-(3,4-difluorophenyl)cyclopropyl)-9-ethyl-2-(ethylthio)-9H-purin-6-amine]
antibacterial activity / inhibition of MRSE growth (in words) ([1]; MHB medium): able to inhibit MRSE growth | MIC [1, 4]: 25 µM (≈ 9.39 µg/mL) | antibacterial activity / inhibition of Xen29 growth (in words) [3]: able to inhibit | MIC ([3]; ATCC12600, read-out: MIC Xen29): 30 µM (≈ 11.3 µg/mL) | antibacterial activity against MRSA (in words) [2]: active | MIC ([2]; read-out: MIC MRSA): 25 µM (≈ 9.39 µg/mL)

CCSc1nc(N[C@@H]2C[C@H]2c2ccc(F)c(F)c2)c2ncn(C)c2n1 [Molecule 2525, N-((1R,2S)-2-(3,4-difluorophenyl)cyclopropyl)-2-(ethylthio)-9-methyl-9H-purin-6-amine]
antibacterial activity / inhibition of MRSE growth (in words) ([1]; MHB medium): able to inhibit MRSE growth | MIC [1, 4]: 40 µM (≈ 14.5 µg/mL) | antibacterial activity / inhibition of Xen29 growth (in words) [3]: able to inhibit | MIC ([3]; ATCC12600, read-out: MIC Xen29): 30 µM (≈ 10.8 µg/mL) | antibacterial activity against MRSA (in words) [2]: active | MIC ([2]; read-out: MIC MRSA): 25 µM (≈ 9.04 µg/mL)

CSc1nc(N[C@@H]2C[C@H]2c2ccc(F)c(F)c2)c2ncn(C)c2n1 [Molecule 2498, N-((1R,2S)-2-(3,4-difluorophenyl)cyclopropyl)-9-methyl-2-(methylthio)-9H-purin-6-amine]
antibacterial activity / inhibition of MRSE growth (in words) ([1]; MHB medium): able to inhibit MRSE growth | MIC [1, 4]: 60 µM (≈ 20.8 µg/mL) | antibacterial activity / inhibition of Xen29 growth (in words) [3]: able to inhibit | MIC ([3]; ATCC12600, read-out: MIC Xen29): 30 µM (≈ 10.4 µg/mL) | antibacterial activity against MRSA (in words) [2]: active | MIC ([2]; read-out: MIC MRSA): 30 µM (≈ 10.4 µg/mL)

CCSc1nc(N[C@@H]2C[C@H]2c2ccc(F)c(F)c2)c2cnn(CC)c2n1.Cl [Molecule 2783, N-((1R,2S)-2-(3,4-difluorophenyl)cyclopropyl)-6-(ethylthio)-1-ethyl-1H-pyrazolo[3,4-d]pyrimidin-4-amine hydrochloride]
MIC [1, 5]: >100 µM | MIC [1, 6]: > 100 µM | antibacterial activity against MRSA (in words) [2]: active | MIC ([2]; read-out: MIC MRSA): 25 µM

CCCn1ncc2c(N[C@@H]3C[C@H]3c3ccc(F)c(F)c3)nc(SC)nc21.Cl [Molecule 2693, N-((1R,2S)-2-(3,4-difluorophenyl)cyclopropyl)-6-(methylthio)-1-propyl-1H-pyrazolo[3,4-d]pyrimidin-4-amine hydrochloride]
MIC [1, 5]: >100 µM | MIC [1, 6]: > 100 µM | MIC ([3]; ATCC12600, read-out: MIC Xen29): > 100 µM | antibacterial activity against MRSA (in words) [2]: active | MIC ([2]; read-out: MIC MRSA): 20 µM

CCn1ncc2c(N[C@@H]3C[C@H]3c3ccc(F)c(F)c3)nc(SC)nc21 [Molecule 2544, N-((1R,2S)-2-(3,4-difluorophenyl)cyclopropyl)-1-ethyl-6-(methylthio)-1H-pyrazolo[3,4-d]pyrimidin-4-amine]
antibacterial activity / inhibition of MRSE growth (in words) ([1]; MHB medium): able to inhibit MRSE growth | MIC [1, 4]: 80 µM (≈ 28.9 µg/mL) | antibacterial activity / inhibition of Xen29 growth (in words) [3]: able to inhibit | MIC ([3]; ATCC12600, read-out: MIC Xen29): 50 µM (≈ 18.1 µg/mL) | antibacterial activity against MRSA (in words) [2]: active | MIC ([2]; read-out: MIC MRSA): 50 µM (≈ 18.1 µg/mL)

CCCSc1nc(N[C@@H]2C[C@H]2c2ccc(F)c(F)c2)c2cnn(CC)c2n1.Cl [Molecule 2784, N-((1R,2S)-2-(3,4-difluorophenyl)cyclopropyl)-6-(propylthio)-1-ethyl-1H-pyrazolo[3,4-d]pyrimidin-4-amine hydrochloride]
MIC [1, 5]: >100 µM | MIC [1, 6]: > 100 µM | antibacterial activity against MRSA (in words) [2]: active | MIC ([2]; read-out: MIC MRSA): 50 µM

CSc1nc(N[C@@H]2C[C@H]2c2ccc(F)c(F)c2)c2cnn(C(C)C)c2n1.Cl [Molecule 2676, N-((1R,2S)-2-(3,4-difluorophenyl)cyclopropyl)-1-isopropyl-6-(methylthio)-1H-pyrazolo[3,4-d]pyrimidin-4-amine hydrochloride]
antibacterial activity / inhibition of MRSE growth (in words) ([1]; MHB medium): able to inhibit MRSE growth | MIC [1, 6]: 50 µM | MIC ([3]; ATCC12600, read-out: MIC Xen29): > 100 µM | antibacterial activity against MRSA (in words) [2]: active | MIC ([2]; read-out: MIC MRSA): 20 µM

CCCSc1nc(N[C@@H]2C[C@H]2c2ccc(F)c(F)c2)c2cnn(C)c2n1.Cl [Molecule 2782, N-((1R,2S)-2-(3,4-difluorophenyl)cyclopropyl)-6-(propylthio)-1-methyl-1H-pyrazolo[3,4-d]pyrimidin-4-amine hydrochloride]
MIC [1, 5]: >100 µM | MIC [1, 6]: > 100 µM | antibacterial activity against MRSA (in words) [2]: active | MIC ([2]; read-out: MIC MRSA): 25 µM

CCCCOc1nc(NC2CC2)c2ncn(Cc3c(F)ccc(C)c3F)c2n1 [38z″, 2-Butoxy-N-cyclopropyl-9-(2,6-difluoro-3-methylbenzyl)-9H-purin-6-amine, reference compound]
MIC ([1]; Staphylococcus epidermidis, read-out: MIC MRSE (comparison molecules of WO2009/034386)): > 200 µM | MIC ([3]; ATCC12600, read-out: MIC Xen29 (comparison molecules of WO2009/034386)): > 200 µM | MIC ([2]; read-out: MIC MRSA (comparison molecules of WO2009/034386)): > 200 µM
